# In paper PMC10686834, “Targeting myeloid chemotaxis to reverse prostate cancer therapy resistance” (Nature, 2023):
# Test system: patients with ARSI-resistant mCRPC
# Assay: Phase 1 trial of AZD5069 plus enzalutamide: safety and tolerability (DLTs, treatment-emergent adverse events, NCI-CTCAE v.4.0)
# Format: in vivo
# Excerpt: The primary trial objective was to evaluate the safety and tolerability of the combination. Key secondary objectives were to evaluate pharmacokinetic–pharmacodynamic parameters and antitumour activity.
# Eligible patients were consenting patients aged ≥18 years, who had mCRPC with histologically confirmed prostate adenocarcinoma histology, documented cancer progression at the time of trial entry by Response Evaluation Criteria in Solid Tumors (v.1.1) and/or Prostate Cancer Working Group 2 criteria, and PSA of ≥10 ng ml^−1 at screening.
# The dose-escalation phase used a rule-based 3 + 3 design, with an initial three patients enrolled per dose level. If none of the first three patients experienced a DLT, dose escalation proceeded to the next dose level. […] If fewer than two of six patients at any dose level experienced a DLT, dose escalation continued to the next level. If at least two out of up to six patients experienced a DLT, dose escalation stopped and this dose level was defined as the maximum administered dose. Once this maximum administered dose was defined, the maximum tolerated dose (MTD) was confirmed at the dose level below the maximum administered dose. At least six evaluable patients were required to establish the MTD at a specific dose level. […] Intra-patient dose escalation was not permitted. Start of dosing between the first and second patient enrolled to each dose level was staggered by 1 week. Once the MTD was determined in the phase 1 study, the recommended phase 2 dose was determined on the basis of available data, including but not limited to safety and response.
# DLTs were defined as described in the study protocol. […] Prophylaxis with growth factor support or antipyretics were not permitted. Investigators determined whether an adverse event was related to the study drugs. If a patient experienced clinically significant and/or unacceptable toxicity, including a DLT, not attributable to the disease or disease-related processes, dosing was interrupted or the dose was reduced and supportive therapy was administered as required.
smiles,measurement,setting,value
C[C@@H](Oc1cc(NS(=O)(=O)N2CCC2)nc(SCc2cccc(F)c2F)n1)[C@@H](O)CO [AZD5069],"TEAE Arthralgia, G≥3",AZD5069 160 mg BD (n=6),0 (0) n (%)
same,"TEAE Aspartate aminotransferase increased, All G",AZD5069 160 mg BD (n=6),0 (0) n (%)
same,"TEAE Aspartate aminotransferase increased, G≥3",AZD5069 160 mg BD (n=6),0 (0) n (%)
same,"TEAE Constipation, All G",AZD5069 160 mg BD (n=6),0 (0) n (%)
same,"TEAE Constipation, G≥3",AZD5069 160 mg BD (n=6),0 (0) n (%)
same,"TEAE Death, All G",AZD5069 160 mg BD (n=6),0 (0) n (%)
same,"TEAE Death, G≥3",AZD5069 160 mg BD (n=6),0 (0) n (%)
same,"TEAE Decreased appetite, All G",AZD5069 160 mg BD (n=6),0 (0) n (%)
same,"TEAE Decreased appetite, G≥3",AZD5069 160 mg BD (n=6),0 (0) n (%)
same,"TEAE Diarrhoea, All G",AZD5069 160 mg BD (n=6),0 (0) n (%)
same,"TEAE Diarrhoea, G≥3",AZD5069 160 mg BD (n=6),0 (0) n (%)
same,"TEAE Dry skin, All G",AZD5069 160 mg BD (n=6),0 (0) n (%)
same,"TEAE Dry skin, G≥3",AZD5069 160 mg BD (n=6),0 (0) n (%)
same,"TEAE Fatigue, All G",AZD5069 160 mg BD (n=6),2 (33) n (%)
same,"TEAE Fatigue, G≥3",AZD5069 160 mg BD (n=6),0 (0) n (%)
same,"TEAE Headache, All G",AZD5069 160 mg BD (n=6),0 (0) n (%)
same,"TEAE Headache, G≥3",AZD5069 160 mg BD (n=6),0 (0) n (%)
same,"TEAE Hypophosphataemia, All G",AZD5069 160 mg BD (n=6),0 (0) n (%)
same,"TEAE Hypophosphataemia, G≥3",AZD5069 160 mg BD (n=6),0 (0) n (%)
same,"TEAE Nausea, All G",AZD5069 160 mg BD (n=6),2 (33) n (%)
same,"TEAE Nausea, G≥3",AZD5069 160 mg BD (n=6),0 (0) n (%)
same,"TEAE Neutrophil decreased, All G",AZD5069 160 mg BD (n=6),5 (83) n (%)
same,"TEAE Neutrophil decreased, G≥3",AZD5069 160 mg BD (n=6),4 (67) n (%)
same,"TEAE Oedema genital, All G",AZD5069 160 mg BD (n=6),1 (17) n (%)
same,"TEAE Oedema genital, G≥3",AZD5069 160 mg BD (n=6),0 (0) n (%)
same,"TEAE Platelet decreased, All G",AZD5069 160 mg BD (n=6),1 (17) n (%)
same,"TEAE Platelet decreased, G≥3",AZD5069 160 mg BD (n=6),0 (0) n (%)
same,"TEAE Pruritus, All G",AZD5069 160 mg BD (n=6),0 (0) n (%)
same,"TEAE Pruritus, G≥3",AZD5069 160 mg BD (n=6),0 (0) n (%)
same,"TEAE Skin infection, All G",AZD5069 160 mg BD (n=6),0 (0) n (%)
same,"TEAE Skin infection, G≥3",AZD5069 160 mg BD (n=6),0 (0) n (%)
same,"TEAE Vomiting, All G",AZD5069 160 mg BD (n=6),0 (0) n (%)
same,"TEAE Vomiting, G≥3",AZD5069 160 mg BD (n=6),0 (0) n (%)
same,"TEAE White blood cell decreased, All G",AZD5069 160 mg BD (n=6),2 (33) n (%)
same,"TEAE White blood cell decreased, G≥3",AZD5069 160 mg BD (n=6),0 (0) n (%)
same,"TEAE Anemia, All G",AZD5069 320 mg BD (n=7),0 (0) n (%)
same,"TEAE Anemia, G≥3",AZD5069 320 mg BD (n=7),0 (0) n (%)
same,"TEAE Aphasia, All G",AZD5069 320 mg BD (n=7),1 (14) n (%)
same,"TEAE Aphasia, G≥3",AZD5069 320 mg BD (n=7),0 (0) n (%)
same,"TEAE Arthralgia, All G",AZD5069 320 mg BD (n=7),1 (14) n (%)
same,"TEAE Arthralgia, G≥3",AZD5069 320 mg BD (n=7),0 (0) n (%)
same,"TEAE Aspartate aminotransferase increased, All G",AZD5069 320 mg BD (n=7),1 (14) n (%)
same,"TEAE Aspartate aminotransferase increased, G≥3",AZD5069 320 mg BD (n=7),0 (0) n (%)
same,"TEAE Constipation, All G",AZD5069 320 mg BD (n=7),1 (14) n (%)
same,"TEAE Constipation, G≥3",AZD5069 320 mg BD (n=7),0 (0) n (%)
same,"TEAE Death, All G",AZD5069 320 mg BD (n=7),1 (14) n (%)
same,"TEAE Death, G≥3",AZD5069 320 mg BD (n=7),1 (14) n (%)
same,"TEAE Decreased appetite, All G",AZD5069 320 mg BD (n=7),1 (14) n (%)
same,"TEAE Decreased appetite, G≥3",AZD5069 320 mg BD (n=7),0 (0) n (%)
same,"TEAE Diarrhoea, All G",AZD5069 320 mg BD (n=7),1 (14) n (%)
same,"TEAE Diarrhoea, G≥3",AZD5069 320 mg BD (n=7),1 (14) n (%)
same,"TEAE Dry skin, All G",AZD5069 320 mg BD (n=7),1 (14) n (%)
same,"TEAE Dry skin, G≥3",AZD5069 320 mg BD (n=7),0 (0) n (%)
same,"TEAE Fatigue, All G",AZD5069 320 mg BD (n=7),3 (43) n (%)
same,"TEAE Fatigue, G≥3",AZD5069 320 mg BD (n=7),0 (0) n (%)
same,"TEAE Headache, All G",AZD5069 320 mg BD (n=7),3 (43) n (%)
same,"TEAE Headache, G≥3",AZD5069 320 mg BD (n=7),0 (0) n (%)
same,"TEAE Hypophosphataemia, All G",AZD5069 320 mg BD (n=7),0 (0) n (%)
same,"TEAE Hypophosphataemia, G≥3",AZD5069 320 mg BD (n=7),0 (0) n (%)
same,"TEAE Nausea, All G",AZD5069 320 mg BD (n=7),1 (14) n (%)
same,"TEAE Nausea, G≥3",AZD5069 320 mg BD (n=7),0 (0) n (%)
same,"TEAE Neutrophil decreased, All G",AZD5069 320 mg BD (n=7),6 (86) n (%)
same,"TEAE Neutrophil decreased, G≥3",AZD5069 320 mg BD (n=7),4 (57) n (%)
